Measurements published in ChEMBL document CHEMBL1154071, “Studies towards the identification of putative bioactive conformation of potent vasodilator arylidene N-acylhydrazone derivatives” (Eur J Med Chem, 2009).
One block for each compound: values may come before it. Active and inactive are the calls of the source. The rule behind the calls is not given here.

Key:
Aorta [1] = assay: Vasorelaxant activity in endothelium-intact Wistar rat thoracic aortic ring assessed as complete inhibition of phenylephrine-induced contraction at 20 uM in intact endothelium; assay type: functional, tissue-based
Aorta [2] = assay: Vasorelaxant activity in endothelium-intact Wistar rat thoracic aortic ring assessed as inhibition of phenylephrine-induced contraction; assay type: functional, tissue-based
Aorta [3] = assay: Vasorelaxant activity in endothelium-denuded Wistar rat thoracic aortic ring assessed as inhibition of phenylephrine-induced contraction; assay type: functional, tissue-based
[4] = molecular target: cGMP-specific 3',5'-cyclic phosphodiesterase (Homo sapiens) (UniProt O76074); assay: Inhibition of PDE5 up to 30 uM
[5] = molecular target: T1, 3',5'-cyclic-AMP phosphodiesterase 4B (Homo sapiens, UniProt Q07343); assay: Inhibition of PDE4B
T1 sequence (Q07343 whole entry): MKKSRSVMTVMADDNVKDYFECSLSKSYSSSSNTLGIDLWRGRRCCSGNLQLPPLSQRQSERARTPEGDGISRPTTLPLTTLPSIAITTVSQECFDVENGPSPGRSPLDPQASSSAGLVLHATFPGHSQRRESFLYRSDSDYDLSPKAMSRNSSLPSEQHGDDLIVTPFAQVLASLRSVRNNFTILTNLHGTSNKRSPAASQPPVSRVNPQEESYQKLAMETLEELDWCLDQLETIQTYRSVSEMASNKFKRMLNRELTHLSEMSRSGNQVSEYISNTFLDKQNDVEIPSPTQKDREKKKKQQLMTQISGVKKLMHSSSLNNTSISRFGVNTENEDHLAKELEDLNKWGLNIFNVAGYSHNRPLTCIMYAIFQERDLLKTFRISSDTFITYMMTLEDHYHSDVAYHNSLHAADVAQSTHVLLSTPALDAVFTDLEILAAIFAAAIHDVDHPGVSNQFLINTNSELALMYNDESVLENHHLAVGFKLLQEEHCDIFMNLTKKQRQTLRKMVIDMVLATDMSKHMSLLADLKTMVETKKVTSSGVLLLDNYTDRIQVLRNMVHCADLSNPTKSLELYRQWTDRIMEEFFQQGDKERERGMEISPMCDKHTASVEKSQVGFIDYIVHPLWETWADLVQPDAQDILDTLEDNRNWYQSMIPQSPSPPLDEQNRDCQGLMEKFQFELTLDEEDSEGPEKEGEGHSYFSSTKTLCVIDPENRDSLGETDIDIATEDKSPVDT

[6] = molecular target: cGMP-dependent 3',5'-cyclic phosphodiesterase (Homo sapiens) (UniProt O00408); assay: Inhibition of PDE2A up to 30 uM
cGMP-dependent 3',5'-cyclic phosphodiesterase (Homo sapiens), sequence (O00408 whole entry): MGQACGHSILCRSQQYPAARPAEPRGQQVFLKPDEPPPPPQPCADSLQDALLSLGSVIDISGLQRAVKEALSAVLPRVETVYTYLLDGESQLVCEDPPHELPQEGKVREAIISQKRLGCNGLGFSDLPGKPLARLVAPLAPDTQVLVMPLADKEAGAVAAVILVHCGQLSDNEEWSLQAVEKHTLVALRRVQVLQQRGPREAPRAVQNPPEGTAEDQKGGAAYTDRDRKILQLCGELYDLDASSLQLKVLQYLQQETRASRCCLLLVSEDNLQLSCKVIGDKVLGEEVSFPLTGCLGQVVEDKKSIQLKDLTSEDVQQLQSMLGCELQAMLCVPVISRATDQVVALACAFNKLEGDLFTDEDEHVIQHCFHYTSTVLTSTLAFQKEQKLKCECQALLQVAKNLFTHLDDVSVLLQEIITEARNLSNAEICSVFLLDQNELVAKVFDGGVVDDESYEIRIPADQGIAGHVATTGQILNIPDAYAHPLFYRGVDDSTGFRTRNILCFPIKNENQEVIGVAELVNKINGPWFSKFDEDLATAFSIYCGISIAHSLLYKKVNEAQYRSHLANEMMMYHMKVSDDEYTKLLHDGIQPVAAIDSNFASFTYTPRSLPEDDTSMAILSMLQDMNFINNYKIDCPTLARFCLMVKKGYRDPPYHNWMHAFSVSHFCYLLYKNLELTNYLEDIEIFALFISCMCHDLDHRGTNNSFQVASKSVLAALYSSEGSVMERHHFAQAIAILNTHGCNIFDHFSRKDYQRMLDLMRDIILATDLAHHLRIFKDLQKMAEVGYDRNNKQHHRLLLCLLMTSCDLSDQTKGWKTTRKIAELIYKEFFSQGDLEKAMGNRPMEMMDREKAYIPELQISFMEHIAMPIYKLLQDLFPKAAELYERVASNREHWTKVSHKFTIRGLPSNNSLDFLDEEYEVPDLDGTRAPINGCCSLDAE

Aorta [7] = assay: Vasorelaxant activity in endothelium-denuded Wistar rat thoracic aortic ring assessed as inhibition of phenylephrine-induced contraction at 200 uM; assay type: functional
Aorta [8] = assay: Vasorelaxant activity in endothelium-intact Wistar rat thoracic aortic ring assessed as inhibition of phenylephrine-induced contraction at 200 uM; assay type: functional
Aorta [9] = assay: Vasorelaxant activity in endothelium-intact Wistar rat thoracic aortic ring assessed as inhibition of phenylephrine-induced contraction at 500 uM; assay type: functional
Aorta [10] = assay: Vasorelaxant activity in endothelium-denuded Wistar rat thoracic aortic ring assessed as inhibition of phenylephrine-induced contraction at 500 uM; assay type: functional
Aorta [11] = assay: Vasorelaxant activity in endothelium-denuded Wistar rat thoracic aortic ring assessed as inhibition of phenylephrine-induced contraction at 100 uM; assay type: functional
[12] = molecular target: T1, 3',5'-cyclic-AMP phosphodiesterase 4B; assay: Inhibition of PDE4B up to 30 uM

- IC50 (Aorta [2]): 3.5 µM
- IC50 (Aorta [3]): 11.1 µM
SMILES: CN(/N=C/c1ccccc1)C(=O)c1ccc2c(c1)OCO2
- Activity (Aorta [1]): Active

- IC50 (Aorta [2]): 3.1 µM
- IC50 (Aorta [3]): 17.8 µM
SMILES: CN(/N=C/c1ccc[nH]1)C(=O)c1ccc2c(c1)OCO2

- Activity [4]: inactive
- IC50 (Aorta [2]): 10.2 µM
- IC50 [5]: > 30 µM
- Activity [6]: inactive
- IC50 (Aorta [3]): 18.5 µM
SMILES: CN(/N=C/c1cccs1)C(=O)c1ccc2c(c1)OCO2
- Activity (Aorta [2]): Dose-dependent effect

SMILES: O=C(N/N=C/c1ccc[nH]1)c1ccc2c(c1)OCO2
- inhibition at 200 µM (Aorta [7]): < 50%
- inhibition at 200 µM (Aorta [8]): < 50%

- IC50 (Aorta [2]): 81 µM
SMILES: O=C(N/N=C/c1ccccc1)c1ccc2c(c1)OCO2
- inhibition at 500 µM (Aorta [9]): 70.7%
- inhibition at 500 µM (Aorta [10]): < 50%

SMILES: O=C(N/N=C/c1ccco1)c1ccc2c(c1)OCO2
- inhibition at 500 µM (Aorta [9]): < 50%
- inhibition at 500 µM (Aorta [10]): < 50%

- IC50 (Aorta [2]): 40.8 µM
- IC50 (Aorta [3]): 15.7 µM
SMILES: CN(/N=C/c1ccco1)C(=O)c1ccc2c(c1)OCO2

- Activity [4]: inactive
- IC50 (Aorta [2]): 74 µM
- Activity [6]: inactive
- Activity [12]: inactive
SMILES: O=C(N/N=C/c1cccs1)c1ccc2c(c1)OCO2
- Activity (Aorta [2]): Dose-dependent effect
- inhibition at 100 µM (Aorta [11]): < 50%
